Source: patent US20240366609A1 (Genentech, Inc., priority 2021, published 2024)

What was measured:
[1] = atezolizumab Study PCD4989g; type: in vivo, human; conditions: single agent
Procedure: The pharmacokinetics of atezolizumab administered as a single agent have been characterized based on clinical data from study PCD4989g and are consistent with a currently ongoing Phase III Study WO29522 in first line treatment of TNBC. Atezolizumab anti-tumor activity has been observed across doses from 1 to 20 mg/kg. […] Atezolizumab dosing schedules of q3w and q2w have been tested. A fixed dose of atezolizumab 800 mg every two weeks (q2w) (equivalent to a body weight-based dose of 10 mg/kg q2w) results in equivalent exposure to the Phase III dose of 1200 mg administered every three weeks (q3w). The q3w schedule is being used in multiple Phase III studies of atezolizumab monotherapy across multiple tumor types and the q2w predominantly used in combination with chemotherapy regimens.

[2] = system: Calu-6 NSCLC cell line harboring KRAS^Q61K mutation; experiment: Calu-6 xenograft, belvarafenib and selumetinib (Example 10); type: in vivo, mice; conditions: 17 days
melanoma = conditions: patients who have previously undergone anti-PD-1 treatment; cited from earlier work
[3] = system: SK-MEL-30 melanoma cell line harboring NRAS^Q61K mutation; experiment: SK-MEL-30 xenograft, belvarafenib and binimetinib (Example 9); type: in vivo, mice; conditions: 21 days
[4] = system: SK-MEL-30 human melanoma cell line harboring NRAS^Q61K mutation; experiment: SK-MEL-30 xenograft, belvarafenib and cobimetinib (Example 7); conditions: 10 mg/kg QD orally, 14 days
Procedure: (§1) Tumor volume in mm^3 and body weight change were measured at days 1, 4, 9 and 15.
(§2) Maximum inhibition rate (max inhib (%)) was determined by (1−(mean relative tumor weight in treated group/mean relative tumor weight control group))*100.

[5] = plasma protein binding of cobimetinib; type: in vitro ADME; conditions: concentration-independent
[6] = clinical pharmacokinetics of cobimetinib; conditions: for half-life: oral administration
[7] = system: SK-MEL-30 human melanoma cell line harboring NRAS^Q61K mutation; conditions: mouse, in vivo, po
Procedure: as §1, §2

[8] = Phase 1a/b study NCT03284502: pharmacokinetic analysis; type: in vivo, human; conditions: steady-state, dose normalized
advanced melanoma = conditions: cited from earlier work

Atezolizumab: humanized IgG1 monoclonal antibody that targets PD-L1
Kaplan-Meier estimated overall 24-week progression-free survival (PFS) rate [1]: 33%

Cn1cnc2c(F)c(Nc3ccc(Br)cc3Cl)c(C(=O)NOCCO)cc21 [Selumetinib, reference compound]
Day for max inhib ([2]; 5 mg/kg BID orally): Day 18 | Max inhib. Rate (%) ([2]; 5 mg/kg BID orally): 59.0% | Max weight loss (%) ([2]; 5 mg/kg BID orally): 1.5% | tolerability ([2]; single agent): well tolerated with or without minimal body weight loss

ipilimumab: anti-CTLA4 immunotherapy agent
response rate (melanoma): approximately 15%

Cn1cnc2c(F)c(Nc3ccc(Br)cc3F)c(C(=O)NOCCO)cc21 [Binimetinib]
Day for max inhib ([3]; 10 mg/kg QD orally): Day 21 | Max inhib. Rate (%) ([3]; 10 mg/kg QD orally): 13.6% | Max weight loss (%) ([3]; 10 mg/kg QD orally): 0.8% | Day for max inhib ([3]; 30 mg/kg QD orally): Day 21 | Max inhib. Rate (%) ([3]; 30 mg/kg QD orally): 27.1% | tolerability ([3]; single agent, 10 and 30 mg/kg q.d.): well tolerated without marked body weight loss

O=C(c1ccc(F)c(F)c1Nc1ccc(I)cc1F)N1CC(O)([C@@H]2CCCCN2)C1 [Cobimetinib, (S)-[3,4-Difluoro-2-(2-fluoro-4-iodophenylamino)phenyl][3-hydroxy-3-(piperidin-2-yl)azetidin-1-yl]methanone]
Day for max inhib [4]: Day 15 | Max inhib. Rate (%) [4]: 54.3% | binding to plasma proteins [5]: 95% | pharmacokinetics in the fed state compared with the fasted state ([6]; healthy subjects): not altered | bioavailability ([6]; human, in vivo, oral): 45.9% | Tmax ([6]; human, in vivo, po): 1 to 3 h | half-life ([6]; human, in vivo, po, mean terminal half-life (t½)): 48.8 h | half-life ([6]; human, in vivo, po, terminal half-life (t½), range): 23.1 to 80 h | effect of the proton pump inhibitor rabeprazole on cobimetinib pharmacokinetics ([6]; presence or absence of a high-fat meal): minimal effect | tolerability [7]: well tolerated without body weight loss | drug-drug interaction with belvarafenib impacting cobimetinib exposure [8]: no apparent drug-drug interaction

nivolumab: anti-PD-1 immunotherapy agent, monotherapy arm of a Phase III trial
median OS (advanced melanoma; 5 years minimum follow-up): 36.9 months | PFS (advanced melanoma; Phase III trial of 1296 patients): 6.9 months
